Measured values reported in a melting point compilation (Tetko et al.).

Row | SMILES | melting point [°C]
1 | O=C1CCc2cc(S(=O)(=O)Cl)c(F)cc2N1 | 207 to 209
2 | Nc1nncc(-c2ccccc2F)n1 | 204 to 206
3 | O=C(O)c1c2c(nc3ccccc13)C(=Cc1ccc(Cl)c(Cl)c1)CC2 | 184 to 186
4 | O=C(O)c1cc(-c2ccco2)nc2cc(F)ccc12 | 272 to 274
5 | O=C(O)c1sccc1S(=O)(=O)C(F)F | 121 to 123
6 | O=C1CCc2c(Cl)cc(Cl)cc21 | 109 to 111
7 | O=c1c(Cl)c(Cl)cnn1-c1ccc(F)cc1F | 173 to 175
8 | Nc1cc(Cl)ccc1-n1cnnn1 | 130 to 132
9 | COc1cc(C=NO)ccc1OC(F)F | 57 to 59
10 | Cc1[nH]ccc1C(=O)O | 167 to 169
11 | C=CCC(NC(C)=O)C(=O)O (centres undefined) | 114 to 116
12 | Nc1cc(I)ccc1Br | 64 to 66
13 | Nc1nnc(SCC(=O)O)s1 | 196 to 198
14 | CC(O)CS(C)(=O)=O (centres undefined) | 51 to 53
15 | Nc1cc(OCC(F)(F)F)cc(OCC(F)(F)F)c1 | 50 to 52
16 | CCOC(=O)c1c(C)noc1N | 133 to 135
17 | CC1(c2cc3ccccc3o2)NC(=O)NC1=O (centres undefined) | 203 to 205
18 | O=C(NCCCl)OCC(F)(F)F | 31 to 33
19 | O=C1COc2cccc(S(=O)(=O)Cl)c2N1 | 96 to 98
20 | O=C1NCCc2c(Br)cccc21 | 109 to 111
21 | O=S(=O)(Cc1nc2ccccc2[nH]1)c1ccccc1 | 215 to 217

Row | SMILES | melting point [°C]
22 | Nc1cc(F)c(-n2ccnc2)c(F)c1 | 159 to 161
23 | Cn1nc(C=O)cc1-c1cccs1 | 76 to 78
24 | Nc1ccc(OCc2ccccn2)c(Cl)c1 | 91 to 93
25 | CCOC(=O)c1sc2nc(N3CCOCC3)[nH]c(=O)c2c1C | 296 to 298
26 | SCCCNc1ncccn1 | 45 to 47
27 | O=C(O)CC1COC(=O)C1 (centres undefined) | 83 to 85
28 | O=C(O)c1cccn2c(I)cnc12 | 237 to 239
29 | COc1ccccc1-c1nn(-c2ccccc2)cc1C(=O)O | 195 to 197
30 | NC(=S)N1CCSCC1 | 157 to 159
31 | Cc1cc(Br)cn2c3c(nc12)CCNC3 | 165 to 167
32 | CCC(=O)N1CCCC(C(=O)O)C1 (centres undefined) | 117 to 119
33 | CCn1nc(N)cc1C1CC1 | 111 to 113
34 | COc1cc(S(=O)(=O)Nc2ccc3c[nH]nc3c2)ccc1Br | 199 to 201
35 | O=C(O)C1CCCN1c1ncccn1 (centres undefined) | 139 to 141
36 | O=C(O)C1CCN(c2ccc(S(=O)(=O)N3CCOCC3)cc2[N+](=O)[O-])CC1 | 225 to 227
37 | O=C(O)C1CCCN(S(=O)(=O)c2ccc3ccccc3c2)C1 (centres undefined) | 137 to 139
38 | Nc1nc2c(OCC(F)(F)F)cccc2s1 | 170 to 172
39 | C=CCn1nnnc1S | 66 to 68
40 | C1Cc2nn[nH]c2CN1 | 154 to 156
41 | Cc1nn(-c2ccccc2)cc1C=O | 58 to 60
42 | N#Cc1ccc([N+](=O)[O-])cc1F | 69 to 71

Row | SMILES | melting point [°C]
43 | O=C(O)c1cc([N+](=O)[O-])c2nsnc2c1 | 199 to 201
44 | O=C(O)c1csc(Nc2ccccn2)n1 | 298 to 300
45 | O=C(O)c1cc(NS(=O)(=O)c2ccc(Cl)c([N+](=O)[O-])c2)ccc1O | 239 to 241
46 | CCC(=O)c1ccc(OC)c(OC)c1 | 61 to 63
47 | O=C(O)CSC(=Cc1ccco1)c1nc2ccccc2s1 | 133 to 135
48 | Cc1cncc(C(=O)O)c1O | 249 to 251
49 | COCCNc1nnc(S)s1 | 120 to 122
50 | O=C(O)c1cc(Br)c2c(c1)OCCO2 | 258 to 260
51 | O=C1NC(=O)N(C2CC2)C1=O | 115 to 117
52 | O=C(NC1CCS(=O)(=O)C1)OCC(F)(F)F (centres undefined) | 79 to 81
53 | Cn1nnc(C(=O)O)c1C(F)(F)F | 114 to 116
54 | O=S(=O)(c1ccc(Cl)c(C(F)(F)F)c1)N1CCNCC1 | 292 to 295
55 | O=C(O)CCc1nc2sc3c(c2c(=O)[nH]1)CCCC3 | 140 to 142
56 | Nc1ccc2oc(C(F)(F)F)nc2c1 | 120 to 122
57 | Cn1ccnc1-c1cc(Cl)ccn1 | 77 to 79
58 | N#Cc1ccc(S(=O)(=O)Cl)cc1Cl | 51 to 53
59 | Clc1ccc2c(Cl)ccc(Cl)c2n1 | 85 to 87
60 | CC1CCN(c2ccc([N+](=O)[O-])cc2C(=O)O)CC1 | 160 to 162
61 | c1ccc(CNc2cccnc2)nc1 | 50 to 52
62 | Cc1sc(=O)[nH]c1C(C)C | 129 to 131
63 | O=C(O)c1cc2c(s1)CCC2 | 199 to 201

Row | SMILES | melting point [°C]
64 | Cn1cc(Br)nn1 | 99 to 101
65 | CC1CCN(Cc2nc3sc4c(c3c(=O)[nH]2)CCC4)CC1 | 256 to 258
66 | O=S1(=O)CC(Cl)C(Cl)C1 (centres undefined) | 130 to 133
67 | NC(=O)N1CCCC1CO (centres undefined) | 94 to 96
68 | COc1ccc2c(c1)c(C(=O)O)c(C)n2C1CCCC1 | 174 to 176
69 | O=C(CCl)NC12CC3CC(CC(C3)C1)C2 | 110 to 112
70 | NS(=O)(=O)CCCCl | 63 to 65
71 | Nc1nnc(-c2ccccn2)[nH]1 | 199 to 201
72 | O=C(O)CCCN1C(=O)CNC1=O | 151 to 153
73 | Cc1c(F)ccc2sc(N)nc12 | 174 to 176
74 | COc1cccc(C2(C)NC(=O)NC2=O)c1 (centres undefined) | 119 to 121
75 | N#CCCCS(N)(=O)=O | 49 to 51
76 | O=c1[nH]c2c(c(=O)[nH]1)CCCC2 | 304 to 306
77 | COc1ccc(C)cc1-c1csc(N)n1 | 205 to 207
78 | COc1cccc(-n2cncn2)c1 | 95 to 97
79 | O=c1[nH]nnc2c1cnn2-c1ccccc1 | 144 to 146
80 | Cc1sc2[nH]c(-c3ccc(Cl)nc3)nc(=N)c2c1C | 133 to 135
81 | Cn1c(=O)[nH]c(=O)c2cc(S(=O)(=O)Cl)cnc21 | 214 to 216
82 | COc1cc(C(=O)O)n(-c2ncccc2Cl)n1 | 242 to 244

Other lines, results leading:

Row | melting point [°C] | SMILES
83 | 135 to 137 | O=C(O)C1(c2cccc(Cl)c2)CC1
84 | 174 to 176 | O=C(O)CNC(=O)c1ccccc1I
85 | 217 to 219 | Nc1nccc(-c2ccc([N+](=O)[O-])cc2)n1
86 | 203 to 205 | Cc1nnnn1-c1cc(N)ccc1C(=O)O
87 | 109 to 111 | O=C(Nc1cccc2ccccc12)OCC(F)(F)F
88 | 134 to 136 | CCCCN(C)c1ccc(C(=O)O)cc1
89 | 61 to 63 | CC1CCN(Cc2ccc(N)cc2)CC1
90 | 105 to 107 | Oc1ccc(CNC2CCCCC2)cc1
91 | 74 to 76 | O=C(O)C(Sc1ccc(F)c(Cl)c1)c1ccccc1 (centres undefined)
92 | 199 to 201 | NC(=O)NC(CC(=O)O)c1ccc(Br)cc1 (centres undefined)
93 | 186 to 188 | NS(=O)(=O)c1ccc(F)c(C(=O)O)c1
94 | 269 to 271 | Cc1nnc(-c2ccc(C(=O)O)cc2)n1C
95 | 218 to 220 | COc1ccc(C(=O)O)cc1S(=O)(=O)NC(C)(C)C
96 | 55 to 57 | Nc1ccc(Sc2ccccc2)c(Cl)c1
97 | 91 to 93 | N#Cc1ccc(Br)cc1[N+](=O)[O-]
98 | 118 to 120 | C#Cc1cccc(NC(=O)CBr)c1
99 | 76 to 80 | CCCCN(C)S(=O)(=O)c1ccc(N)cc1
100 | 129 to 131 | CC(CO)N1Cc2cccc(N)c2C1 (centres undefined)
101 | 114 to 121 | O=C(O)CCc1c(-c2ccc(F)cc2)[nH]c2ccccc12
102 | 123 to 125 | CC(C)(C)OC(=O)NCC1(C(=O)O)CCCC1
103 | 128 to 130 | CCOC(=O)Cc1ncccc1C(=O)O

Row | melting point [°C] | SMILES
104 | 121 to 123 | CCC(C)NC(=O)C1CC(C)Nc2ccccc21 (centres undefined)
105 | 102 to 104 | O=C(O)Cc1ccc2c(c1)CCO2
106 | 108 to 110 | COC(=O)c1cc2cc(CBr)ccc2o1
107 | 99 to 101 | COc1ccc(Br)cc1C(N)CO (centres undefined)
108 | 171 to 173 | O=C(O)c1cccc(OCc2ccc(Cl)cc2)c1
109 | 104 to 106 | CNS(=O)(=O)c1ccc(C(C)N)cc1 (centres undefined)
110 | 87 to 89 | CCOC(=O)c1cnn(CCC#N)c1
111 | 133 to 135 | O=C(O)CC(O)(c1ccccc1)C(F)(F)F (centres undefined)
112 | 187 to 189 | CC(=O)Nc1cc(NC(C)=O)cc(C(=O)O)c1
113 | 163 to 165 | CC(=O)NC(C)(C)C(N)=NO
114 | 249 to 251 | N#Cc1ccc2c(c1)CC(=O)N2
115 | 134 to 136 | Cc1ccc(CNC(=O)c2cccc(C#N)c2)cc1
116 | 138 to 140 | Oc1nnc(-c2ccccc2)o1
117 | 83 to 85 | CC(CC(=O)O)c1cccc(C(F)(F)F)c1 (centres undefined)
118 | 209 to 211 | Cc1cn(-c2ccccc2Cl)nc1C(=O)O
119 | 120 to 122 | C=CC(=O)ON=C(N)c1ccc(Cl)cc1
120 | 40 to 44 | COCC(C)NC(=O)CC#N (centres undefined)
121 | 192 to 194 | O=C(O)c1cccc(S(=O)(=O)CC(F)(F)F)c1
122 | 71 to 73 | N#Cc1ccccc1-c1ccc(CN2CCOCC2)cc1
123 | 146 to 148 | CCC(O)(C(N)=O)c1ccc(Br)cc1 (centres undefined)
124 | 181 to 183 | C#Cc1ccc(C(=O)O)nc1

Row | melting point [°C] | SMILES
125 | 143 to 145 | CC(C)(C)c1ccc(CC(C#N)C(N)=O)cc1 (centres undefined)
126 | 279 to 281 | NC1=NS(=O)(=O)c2ccccc21
127 | 99 to 101 | CC(O)c1nc2cc(C(F)(F)F)ccc2n1C (centres undefined)
128 | 47 to 49 | Cc1ccc(-n2nc(C(C)C)cc2N)cc1
129 | 169 to 171 | N#Cc1cc(Oc2ccc(CC(=O)O)cc2)ccn1
130 | 151 to 153 | CS(=O)(=O)c1ccc(-c2nc(CCl)cs2)cc1
131 | 102 to 104 | CC(C)(C)C(=O)NCc1ccc(C(=O)CCl)s1
132 | 59 to 63 | Cc1ccc(C(N)=S)c(C)c1
133 | 98 to 105 | COC(=O)C(=O)CC(=O)c1ccc2c(c1)OCO2
134 | 90 to 92 | CC(C)(C)OC(=O)N(CC(=O)O)C1CC1
135 | 63 to 65 | O=S(=O)(CCCl)c1cccc(Br)c1
136 | 61 to 63 | Cc1ccc(C)n1-c1ccc(Br)cc1
137 | 145 to 147 | CCSc1ccc(C(=O)O)cc1
138 | 182 to 184 | CC(C)(C)NS(=O)(=O)c1cc(C(=O)O)ccc1F
139 | 95 to 97 | CCOC(=O)c1c(-c2ccccc2)csc1N=CN(C)C
140 | 187 to 189 | CCCOc1ccc(C=CC(=O)O)cc1OC
141 | 117 to 119 | CC(=O)Nc1ccc(OCC2CO2)cc1 (centres undefined)
142 | 119 to 121 | Cc1cc(C)nc(SCC(=O)NN)n1
143 | 93 to 96 | NS(=O)(=O)c1cccc(NC(=O)c2ccccc2Cl)c1
144 | 126 to 128 | O=C(Cc1ccccn1)c1ccc(Br)cc1
